The values that follow come from BindingDB's records for patent US10780095 (THE REGENTS OF THE UNIVERSITY OF CALIFORNIA, 2020).

The assay addresses Prokineticin receptor 1 (Human, UniProt Q8TCW9). Briefly: Aequorin-Based Luminescent Assay. The procedure: An aequorin-based luminescent assay for calcium mobilization was used to measure mobilization of intracellular Ca2+ (Bullock et al., Mol Pharmacol 65, 582-588, 2004). Chinese hamster ovary (CHO) cells stably expressing photoprotein aequorin and recombinant PKR1 or PKR2 were tested by this method. Briefly, the cells were charged in Opti-MEM (Invitrogen) containing 8 μM of coelenterazine cp at 37° C. for 2 hours. Cells were detached by brief trypsinization and maintained in Hank's Balanced Salt Solution (HBSS) plus 10 mM HEPES (pH7.5) and 0.1% BSA at about 5×10^5 cells/ml. Luminescence measurements were made using a Berthold luminometer.All compounds were diluted in HBSS plus 10 mM HEPES (pH7.5) and 0.1% BSA. To test the agonist activity, 100 μl of cells were injected into the tubes with 20 μl of compounds. For antagonist assays, 80 μl cells were incubated in the tubes with 20 μl different concentrations of antagonists at room temperature for 20 minutes, and then 100 μl of recombinant PK2 were injected. The IC50 obtained from the assays were then converted to Ki values using the formula: IC50/(1+[PK2]/EC50PK2).

Chain of Prokineticin receptor 1 (Q8TCW9 whole entry): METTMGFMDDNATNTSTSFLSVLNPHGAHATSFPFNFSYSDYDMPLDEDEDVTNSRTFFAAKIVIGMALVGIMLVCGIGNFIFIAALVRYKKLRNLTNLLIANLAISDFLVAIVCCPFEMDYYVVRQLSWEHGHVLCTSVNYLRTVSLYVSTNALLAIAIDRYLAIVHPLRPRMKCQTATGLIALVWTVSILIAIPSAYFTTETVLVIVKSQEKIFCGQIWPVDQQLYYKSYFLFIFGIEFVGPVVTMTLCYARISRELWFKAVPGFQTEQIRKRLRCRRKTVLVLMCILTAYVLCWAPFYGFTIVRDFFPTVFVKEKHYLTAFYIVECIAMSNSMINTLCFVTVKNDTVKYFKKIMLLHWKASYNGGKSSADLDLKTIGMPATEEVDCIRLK

With `COc1cc(F)cc(CN2CCC(C(=O)N(Cc3cc(Cl)c4c(c3)OCCCO4)CC(C)C)C2)c1` (configuration not stated) [US10780095, Structure TABLE 1.18], the Ki turned out to be 41.5 nM.

`COc1cc(F)cc(CN2CCC(C(=O)N(Cc3cc(Cl)c4c(c3)OCCCO4)CC(C)C)C2)c1` (configuration not stated) [US10780095, Structure TABLE 1.16]: the affinity, expressed as Ki, was 373 nM.

The term Ki denotes a dissociation constant, usually derived from enzyme kinetics or from competition with a known ligand. Low readings indicate tighter binding, high ones weaker binding.
